Data from PubChem BioAssay (NCI).
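Test compounds were applied to cells in 96-well plates for 48 hours at 5 doses. The concentration for 50% growth inhibition is given as GI50. Definition used: TGI = concentration required for complete inhibition of growth.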 Non-standard residues stand in square brackets, D forms with d. Residues, ends and D or L forms follow the SMILES beside them. *: point of attachment. ONb = O=[N+]([O-])c1ccc(CO*)cc1; AllylGly = C=CC[CH](N)C(=O)O; Boc = CC(C)(C)OC(=O)*

Columns and labels:
Test in all cases: NCI-60 cell line screen, 48 h
MDA-MB-231 breast = tested on: MDA-MB-231 breast
SNB-75 CNS = tested on: SNB-75 CNS
NCI-H226 lung = tested on: NCI-H226 lung
HS 578T breast = tested on: HS 578T breast
MDA-MB-435 = tested on: MDA-MB-435
A549 NSCLC = tested on: A549 NSCLC
NCI-H460 lung = tested on: NCI-H460 lung
SF-268 CNS = tested on: SF-268 CNS
KM12 colon = tested on: KM12 colon
EKVX NSCLC = tested on: EKVX NSCLC

O=c1oc2cc(OS(=O)(=O)c3ccc(F)cc3)ccc2c2c1CCCCC2
GI50 (MDA-MB-231 breast): > 100 µM
TGI (MDA-MB-231 breast): > 100 µM
GI50 (SNB-75 CNS): 19.6 µM
TGI (SNB-75 CNS): > 100 µM
GI50 (NCI-H226 lung): > 100 µM
TGI (NCI-H226 lung): > 100 µM
GI50 (HS 578T breast): 55.2 µM
TGI (HS 578T breast): > 100 µM
GI50 (MDA-MB-435): > 100 µM
TGI (MDA-MB-435): > 100 µM
GI50 (A549 NSCLC): > 100 µM
TGI (A549 NSCLC): > 100 µM
GI50 (NCI-H460 lung): > 100 µM
TGI (NCI-H460 lung): > 100 µM
GI50 (SF-268 CNS): > 100 µM
TGI (SF-268 CNS): > 100 µM

CN(C)c1cccc2c(S(=O)(=O)N[C@H]3CC[C@H]4[C@@H]5CCc6cc(O)ccc6[C@H]5CC[C@]34C)cccc12
GI50 (MDA-MB-231 breast): 1.75 µM
TGI (MDA-MB-231 breast): 4.41 µM
GI50 (SNB-75 CNS): 1.75 µM
TGI (SNB-75 CNS): 9.52 µM
GI50 (NCI-H226 lung): 3.02 µM
TGI (NCI-H226 lung): 11.2 µM
GI50 (HS 578T breast): 2.86 µM
TGI (HS 578T breast): 11.3 µM
GI50 (MDA-MB-435): 1.15 µM
TGI (MDA-MB-435): 2.69 µM
GI50 (A549 NSCLC): 2.51 µM
TGI (A549 NSCLC): 10.7 µM
GI50 (NCI-H460 lung): 2 µM
TGI (NCI-H460 lung): 4.52 µM
GI50 (SF-268 CNS): 3.03 µM
TGI (SF-268 CNS): 15 µM

COc1ccc(Cl)cc1Nc1nc(C(F)(F)F)ccc1C(=O)N/N=C/c1c(Cl)cccc1Cl
GI50 (MDA-MB-231 breast): 14.5 µM
TGI (MDA-MB-231 breast): > 100 µM
GI50 (SNB-75 CNS): 11.9 µM
TGI (SNB-75 CNS): 42.3 µM
GI50 (NCI-H226 lung): 5.54 µM
TGI (NCI-H226 lung): > 100 µM
GI50 (HS 578T breast): 20.2 µM
TGI (HS 578T breast): > 100 µM
GI50 (MDA-MB-435): > 100 µM
TGI (MDA-MB-435): > 100 µM
GI50 (A549 NSCLC): > 100 µM
TGI (A549 NSCLC): > 100 µM
GI50 (NCI-H460 lung): 4.52 µM
TGI (NCI-H460 lung): > 100 µM
GI50 (SF-268 CNS): 5.28 µM
TGI (SF-268 CNS): > 100 µM

CC(=O)Nc1ccc2c(c1)c(C1=C(c3cn(C)c4ccccc34)C(=O)NC1=O)cn2C
GI50 (MDA-MB-231 breast): 5 µM
TGI (MDA-MB-231 breast): > 25 µM
GI50 (SNB-75 CNS): 0.465 µM
TGI (SNB-75 CNS): > 6.67 µM
GI50 (KM12 colon): 1.16 µM
TGI (KM12 colon): > 25 µM
GI50 (NCI-H226 lung): 3.1 µM
TGI (NCI-H226 lung): > 25 µM
GI50 (HS 578T breast): 0.596 µM
TGI (HS 578T breast): > 6.79 µM
GI50 (MDA-MB-435): 0.198 µM
TGI (MDA-MB-435): > 25 µM
GI50 (A549 NSCLC): 1.65 µM
TGI (A549 NSCLC): > 25 µM
GI50 (NCI-H460 lung): 0.986 µM
TGI (NCI-H460 lung): > 25 µM
GI50 (SF-268 CNS): 1.41 µM
TGI (SF-268 CNS): > 25 µM

C=CCC(NC(=O)OC(C)(C)C)C(=O)NC(CCC(=O)OCc1ccc([N+](=O)[O-])cc1)C(N)=O (centres undefined) (Boc-[AllylGly]-Glu(ONb)-NH2; configuration not given here)
GI50 (MDA-MB-231 breast): 93 µg/mL
GI50 (SNB-75 CNS): 21.4 µg/mL
TGI (SNB-75 CNS): 51.5 µg/mL
GI50 (HS 578T breast): 19.8 µg/mL
TGI (HS 578T breast): 45.5 µg/mL
GI50 (EKVX NSCLC): 22.8 µg/mL
TGI (EKVX NSCLC): 61.7 µg/mL
GI50 (A549 NSCLC): 52.3 µg/mL
GI50 (NCI-H460 lung): 24.7 µg/mL
TGI (NCI-H460 lung): 49.8 µg/mL
GI50 (SF-268 CNS): 21.8 µg/mL
TGI (SF-268 CNS): 49.7 µg/mL

Cc1c2c(nn1-c1ccc(S(=O)(=O)NC(=S)Nc3ccccc3)cc1)-c1ccccc1CC2
GI50 (MDA-MB-231 breast): > 50 µM
TGI (MDA-MB-231 breast): > 50 µM
GI50 (SNB-75 CNS): > 50 µM
TGI (SNB-75 CNS): > 50 µM
GI50 (KM12 colon): 25.6 µM
TGI (KM12 colon): > 50 µM
GI50 (NCI-H226 lung): > 50 µM
TGI (NCI-H226 lung): > 50 µM
GI50 (HS 578T breast): 44.6 µM
TGI (HS 578T breast): > 50 µM
GI50 (MDA-MB-435): 14.4 µM
TGI (MDA-MB-435): > 50 µM
GI50 (EKVX NSCLC): > 50 µM
TGI (EKVX NSCLC): > 50 µM
GI50 (A549 NSCLC): > 50 µM
TGI (A549 NSCLC): > 50 µM
GI50 (SF-268 CNS): 18.7 µM
TGI (SF-268 CNS): > 50 µM

Cc1cc(-c2ncc(CC(=O)Nc3ccc(-c4cnccn4)cn3)cc2C)ccn1
GI50 (MDA-MB-231 breast): 55.7 µM
TGI (MDA-MB-231 breast): > 100 µM
GI50 (SNB-75 CNS): 13.8 µM
TGI (SNB-75 CNS): > 100 µM
GI50 (KM12 colon): 36.1 µM
TGI (KM12 colon): > 100 µM
GI50 (NCI-H226 lung): 13.7 µM
TGI (NCI-H226 lung): > 100 µM
GI50 (HS 578T breast): 26 µM
TGI (HS 578T breast): > 100 µM
GI50 (MDA-MB-435): 21.8 µM
TGI (MDA-MB-435): > 100 µM
GI50 (A549 NSCLC): 36.7 µM
TGI (A549 NSCLC): > 100 µM
GI50 (NCI-H460 lung): 63 µM
TGI (NCI-H460 lung): > 100 µM
GI50 (SF-268 CNS): 96 µM
TGI (SF-268 CNS): > 100 µM
